Laboratory results reported in patent publication EP4745124A1, “NAPHTHALIMIDE-BASED CORONAVIRUS PAPAIN-LIKE PROTEASE INHIBITOR” (Guangzhou National Laboratory, priority 2023, dated 2025).
Where two headings read alike, the source gives them in different places.

Key:
SARS-CoV-2 WT = assay: Anti-viral activity evaluation in SARS-CoV-2 infected Vero-E6 cell model (qRT-PCR viral copy numbers); assay type: cell-based; settings: Severe acute respiratory syndrome coronavirus 2, Vero C1008, 48 h, read-out: SARS-Cov-2 WT EC50 (µM)
SARS-Cov-2 XBB.1 = assay: microbe, parasite or virus in culture; assay type: cell-based; settings: Severe acute respiratory syndrome coronavirus 2, Vero C1008, 48 h, read-out: SARS-Cov-2 XBB.1 EC50 (µM)
SARS-CoV-2 PL^Pro = target: T1, SARS-CoV-2 PL^Pro (Severe acute respiratory syndrome coronavirus 2, UniProt P0DTD1); assay: biochemical
T1 construct: SARS-CoV-2 PL^Pro catalytic domain (746-1060); made in house

SARS-Cov-2 Omicron BA.5 = assay: microbe, parasite or virus in culture; assay type: cell-based; settings: Severe acute respiratory syndrome coronavirus 2, Vero C1008, 48 h, read-out: SARS-Cov-2 Omicron BA.5 EC50 (µM)
[1] = clearance proportion
[2] = Routine pharmacokinetic (PK) test in rats, oral gavage; assay type: in vivo; settings: rat, 5 mg/kg, plasma
Method: Solvent formula: 10% DMSO, 5% ethanol, 5% Cremophor EL and 80% deionized water. […] Measure 1.316 mL of DMSO, vortex for 1 minute, and sonicate for 10 minutes to obtain a 5 mg/mL clear DMSO stock solution.
Take 1 mL of 5 mg/mL DMSO stock solution, add 0.5 mL of ethanol, vortex for 1 minute, add 0.5 mL of Cremophor EL, vortex for 1 minute, and finally add 8 mL of deionized water, vortex for 1 minute to obtain a clear administration formulation with a concentration of 0.5 mg/mL. Prepare it immediately before use and store it at room temperature after preparation.
Oral gavage administration, with the route of administration consistent with the intended clinical route of administration.
Oral sampling: There were a total of 8 collection time points, at 0.25, 0.5, 1, 2, 4, 6, 8 and 24 hours after administration.
Plasma: After euthanasia of the animals, blood was drawn by puncture. The samples were placed in tubes containing K2-EDTA and stored on ice until centrifugation. Within 1 hour after blood collection, the samples were centrifuged at 6800 g for 6 minutes at 2-8°C to obtain plasma samples, which were then frozen and stored at approximately -80°C.
Analyze the compound. While analyzing the sample, utilize quality control samples to evaluate the intra-day accuracy of the analytical batch.
When calculating pharmacokinetic parameters, the BLQ concentration data before the time to reach peak concentration (Tmax) in the oral administration group are calculated as "0", and BLQ concentration data after Tmax are excluded from all calculations.
The non-compartmental model statistical moment method using Phoenix WinNonlin® 7.0 software was employed to calculate the following main pharmacokinetic parameters: Tmax, Cmax, AUC(0-t), T1/2, etc.
1) Take 30 µL of mixed standard curve samples, quality control samples, blank samples, zero concentration samples, and test samples. 2) For standard curve samples, quality control samples, zero concentration samples and test samples, add 300 µL of internal standard working solution (containing 100 ng/mL IS). For blank samples, ULOQ without IS samples (if necessary), add the same volume of acetonitrile. 3) Vortex mix for 1 minute 4) Centrifuge at 4°C for 7 minutes (18,000g) 5) Take 200 µL of the supernatant to the corresponding wells of a 96-well injection plate. 6) Inject 4µL of sample for LC-MS/MS analysis. Table 4 Pharmacokinetic data of compounds after oral administration in vivo

[3] = clearance proportion; remark: listed apart in the source
[4] = SARS-CoV-2 PLPro catalytic domain (746-1060), 10 minutes pre-incubation, read-out: PLpro IC50

SMILES: CC(C)N1C(=O)c2cccc3c(C4(NC(=O)c5cccc(N6CC7CC(C6)N7)c5)CC4)ccc1c23 [Compound P16, 5-(3,6-diazabicyclo[3.1.1]heptan-3-yl)-N-(1-(1-isopropyl-2-oxo-1,2-dihydrobenzo[cd]indol-6-yl)cyclopropyl)benzamide]
- EC50 (SARS-CoV-2 WT): 0.1 to 1 µM
- EC50 (SARS-Cov-2 XBB.1): 0.04 to 0.1 µM
- IC50 (SARS-CoV-2 PL^Pro; read-out: PLpro IC50): < 40 nM
- EC50 (SARS-Cov-2 Omicron BA.5): 0.1 to 1 µM

SMILES: Cc1ccc(N2CC3CC(C2)N3)cc1C(=O)NC1(c2ccc3c4c(cccc24)C(=O)N3C)CC1 [Compound P5, 5-(3,6-diazabicyclo[3.1.1]heptan-3-yl)-2-methyl-N-(1-(1-methyl-2-oxo-1,2-dihydrobenzo[cd]indol-6-yl)cyclopropyl)be nzamide]
- EC50 (SARS-CoV-2 WT): < 0.04 µM
- EC50 (SARS-Cov-2 XBB.1): 0.04 to 0.1 µM
- IC50 (SARS-CoV-2 PL^Pro): < 40 nM
- EC50 (SARS-Cov-2 Omicron BA.5): 0.1 to 1 µM

SMILES: Cc1ccc(N2CC(N3CCC(C)(O)CC3)C2)cc1C(=O)NC1(c2ccc3c4c(cccc24)C(=O)N3C)CC1 [Compound P17, 5-(3-(4-Hydroxy-4-methylpiperidin-1-yl)azetidin-1-yl)-2-methyl-N-(1-(1-methyl-2-oxo-1,2-dihydrobenzo[cd]indol-6-yl)cyclopropyl)benzamide]
- EC50 (SARS-CoV-2 WT): < 0.04 µM
- EC50 (SARS-Cov-2 XBB.1): 0.04 to 0.1 µM
- IC50 (SARS-CoV-2 PL^Pro; [4]): < 40 nM
- EC50 (SARS-Cov-2 Omicron BA.5): 0.1 to 1 µM

SMILES: Cc1ccc(N2CCN(C)CC2)cc1C(=O)NC1(c2ccc3c4c(cccc24)C(=O)N3C)CC1 [Compound P1, 2-Methyl-N-(1-(1-methyl-2-oxo-1,2-dihydrobenzo[cd]indol-6-yl)cyclopropyl)-5-(4-methylpiperazin-1-yl)benzamide]
- Human Eh (%) [1]: 77%
- EC50 (SARS-CoV-2 WT): 0.1 to 1 µM
- EC50 (SARS-Cov-2 XBB.1): 0.1 to 1 µM
- AUC(0-t) [2]: 3390 ng·h/mL
- Cmax [2]: 393 ng/mL
- Tmax [2]: 3 h
- half-life [2]: 3 h
- Rat Eh (%) [3]: 37.3%
- EC50 (SARS-Cov-2 Omicron BA.5): 0.1 to 1 µM

SMILES: Cc1ccc(N2CCNCC2C)cc1C(=O)NC1(c2ccc3c4c(cccc24)C(=O)N3C)CC1 (centres unmarked) [Compound P10, 2-Methyl-N-(1-(1-methyl-2-oxo-1,2-dihydrobenzo[cd]indol-6-yl)cyclopropyl)-5-(2-methylpiperazin-1-yl)benzamide]
- IC50 (SARS-CoV-2 PL^Pro; [4]): 100 to 1000 nM

SMILES: Cc1ccc(N2CCC(N3CCCC3)C2)cc1C(=O)NC1(c2ccc3c4c(cccc24)C(=O)N3C)CC1 (centres unmarked) [Compound P37, 5-([1,3'-dipyrrolidin]-1'-yl)-2-methyl-N-(1-(1-methyl-2-oxo-1,2-dihydrobenzo[cd]indol-6-yl)cyclopropyl)benzamide]
- IC50 (SARS-CoV-2 PL^Pro; read-out: PLpro IC50): 40 to 100 nM

SMILES: CCN1C(=O)c2cccc3c(C4(NC(=O)c5cc(N6CC7CC(C6)N7)ccc5C)CC4)ccc1c23 [Compound P29]
- IC50 (SARS-CoV-2 PL^Pro; read-out: PLpro IC50): < 40 nM

SMILES: Cc1ccc(N2CC3CNCC3C2)cc1C(=O)NC1(c2ccc3c4c(cccc24)C(=O)N3C)CC1 (centres unmarked) [Compound P9, 5-(hexahydropyrrolo[3,4-c]pyrrol-2(1H)-yl)-2-methyl-N-(1-(1-methyl-2-oxo-1,2-dihydrobenzo[cd]indol-6-yl)cyclopropyl)benzamide]
- IC50 (SARS-CoV-2 PL^Pro; [4]): < 40 nM

SMILES: Cc1ccc(N2CC(N3CCOC(C)(C)C3)C2)cc1C(=O)NC1(c2ccc3c4c(cccc24)C(=O)N3C)CC1 [Compound P33, 5-(3-(2,2-dimethylmorpholinyl)azetidin-1-yl)-2-methyl-N-(1-(1-methyl-2-oxo-1,2-dihydrobenzo[cd]indol-6-yl)cyclopropyl)benzamide]
- IC50 (SARS-CoV-2 PL^Pro; read-out: PLpro IC50): 100 to 1000 nM

SMILES: Cc1ccc(N2CC3CC(C2)N3C)cc1C(=O)NC1(c2ccc3c4c(cccc24)C(=O)N3C)CC1 [Compound P11, 2-methyl-N-(1-(1-methyl-2-oxo-1,2-dihydrobenzo[cd]indol-6-yl)cyclopropyl)-5-(6-methyl-3,6-diazabicyclo[3.1.1]heptan-3-yl)benzamide]
- EC50 (SARS-CoV-2 WT): 0.1 to 1 µM
- EC50 (SARS-Cov-2 XBB.1): 0.04 to 0.1 µM
- IC50 (SARS-CoV-2 PL^Pro): < 40 nM
- EC50 (SARS-Cov-2 Omicron BA.5): 0.1 to 1 µM

SMILES: Cc1ccc(N2CC(N3CCCCC3C)C2)cc1C(=O)NC1(c2ccc3c4c(cccc24)C(=O)N3C)CC1 (centres unmarked) [Compound P34, 2-Methyl-N-(1-(1-methyl-2-oxo-1,2-dihydrobenzo[cd]indol-6-yl)cyclopropyl)-5-(3-(2-methylpiperidin-1-yl)azetidin-1-yl)benzamide]
- IC50 (SARS-CoV-2 PL^Pro; [4]): < 40 nM

SMILES: Cc1ccc(N2CCN(CC(C)(C)O)CC2)cc1C(=O)NC1(c2ccc3c4c(cccc24)C(=O)N3C)CC1 [Compound P49, 5-(4-(2-Hydroxy-2-methylpropyl)piperazin-1-yl)-2-methyl-N-(1-(1-methyl-2-oxo-1,2-dihydrobenzo[cd]indol-6-yl)cyclopropyl)benzamide]
- IC50 (SARS-CoV-2 PL^Pro; [4]): < 40 nM

SMILES: Cc1ccc(N2CC(N3CCC(O)CC3)C2)cc1C(=O)NC1(c2ccc3c4c(cccc24)C(=O)N3C)CC1 [Compound P32, 5-(3-(4-hydroxypiperidin-1-yl)azetidin-1-yl)-2-methyl-N-(1-(1-methyl-2-oxo-1,2-dihydrobenzo[cd]indol-6-yl)cyclopropyl)benzamide]
- IC50 (SARS-CoV-2 PL^Pro; [4]): < 40 nM

SMILES: Cc1ccc(N2C[C@H]3C[C@@H]2CN3C)cc1C(=O)NC1(c2ccc3c4c(cccc24)C(=O)N3C)CC1 [Compound P40, 2-Methyl-N-(1-(1-methyl-2-oxo-1,2-dihydrobenzo[cd]indol-6-yl)cyclopropyl)-5-((1R,4R)-5-methyl-2,5-diazabicyclo[2. 2.1]heptan-2-yl)benzamide]
- IC50 (SARS-CoV-2 PL^Pro; [4]): < 40 nM

SMILES: Cc1ccc(C2CCNCC2)cc1C(=O)NC1(c2ccc3c4c(cccc24)C(=O)N3C)CC1 [Compound P4, 2-Methyl-N-(1-(1-methyl-2-oxo-1,2-dihydrobenzo[cd]indol-6-yl)cyclopropyl)-5-(piperidin-4-yl)benzamide]
- IC50 (SARS-CoV-2 PL^Pro; [4]): 40 to 100 nM

SMILES: Cc1ccc(N2CCN(CCN(C)C)CC2)cc1C(=O)NC1(c2ccc3c4c(cccc24)C(=O)N3C)CC1 [Compound P52, 5-(4-(2-(Dimethylamino)ethyl)piperazin-1-yl)-2-methyl-N-(1-(1-methyl-2-oxo-1,2-dihydrobenzo[cd]indol-6-yl)cyclopropyl)benzamide]
- IC50 (SARS-CoV-2 PL^Pro; [4]): 100 to 1000 nM

SMILES: Cc1ccc(N2CC(N3CCC(F)CC3)C2)cc1C(=O)NC1(c2ccc3c4c(cccc24)C(=O)N3C)CC1 [Compound P26, 5-(3-(4-fluoropiperidin-1-yl)azetidin-1-yl)-2-methyl-N-(1-(1-methyl-2-oxo-1,2-dihydrobenzo[cd]indol-6-yl)cyclopropyl)benzamide]
- IC50 (SARS-CoV-2 PL^Pro; [4]): < 40 nM

SMILES: CCN1CCN(c2ccc(C)c(C(=O)NC3(c4ccc5c6c(cccc46)C(=O)N5C)CC3)c2)C[C@@H]1C [Compound P14, (S)-5-(4-ethyl-3-methylpiperazin-1-yl)-2-methyl-N-(1-(1-methyl-2-oxo-1,2-dihydrobenzo[cd]indol-6-yl)cyclopropyl)be nzamide]
- IC50 (SARS-CoV-2 PL^Pro; [4]): < 40 nM

SMILES: Cc1ccc(N2C[C@H]3CN(C)C[C@H]32)cc1C(=O)NC1(c2ccc3c4c(cccc24)C(=O)N3C)CC1 [Compound P20, 2-Methyl-N-(1-(1-methyl-2-oxo-1,2-dihydrobenzo[cd]indol-6-yl)cyclopropyl)-5-((1R,5S)-3-methyl-3,6-diazabicyclo[3. 2.0]heptan-6-yl)benzamide]
- IC50 (SARS-CoV-2 PL^Pro; [4]): 100 to 1000 nM

SMILES: Cc1ccc(C2=CCN(C)CC2)cc1C(=O)NC1(c2ccc3c4c(cccc24)C(=O)N3C)CC1 [Compound P7, 2-Methyl-5-(1-methyl-1,2,3,6-tetrahydropiperidin-4-yl)-N-(1-(1-methyl-2-oxo-1,2-dihydrobenzo[cd]indol-6-yl)cyclopropyl)benzamide]
- EC50 (SARS-CoV-2 WT): 0.1 to 1 µM
- EC50 (SARS-Cov-2 XBB.1): 0.1 to 1 µM
- IC50 (SARS-CoV-2 PL^Pro): < 40 nM
- EC50 (SARS-Cov-2 Omicron BA.5): 0.1 to 1 µM

SMILES: Cc1ccc(N2CC3CCN(C)C3C2)cc1C(=O)NC1(c2ccc3c4c(cccc24)C(=O)N3C)CC1 (centres unmarked) [Compound P47]
- IC50 (SARS-CoV-2 PL^Pro; read-out: PLpro IC50): < 40 nM
